Results published in US10259815B2, “Gabaergic ligands and their uses” (UWM Research Foundation, Inc., priority 2015, dated 2019).
pEC50: −log10 of the molar value. “And” between values parts separate entries of the source, which are not always exact repeats. Identical values can stand only once. “Also recorded” adds a separate entry of the source.

Experiments:
[1] = Liver microsomal stability, rat; assay type: in vitro ADME; settings: for Rat Liver microsome stability (reported in % remaining): 37° C., 4 μM compound, 30 minutes
Description: In vitro metabolism studies were done in mouse, rat, human, and dogs cells (TABLE 2).
In vitro liver microsomal studies were completed to measure the stability of the compounds against degradation in various species' liver microsomes.
Compound was incubated in hepatic microsomes over a 30-minute incubation period at 37° C. Incubations both with and without NADPH (2 mM) were performed in a 96-well plate format. The reaction was initiated with the addition of substrate and was terminated by protein precipitation. All incubations were performed using a final substrate concentration of 4 μM in 50 mM sodium phosphate buffer, pH 7.4. The final organic solvent content was 0.5% acetonitrile and 0.02% DMSO. The amount of enzyme present was fixed at 1.11 mg/mL protein irrespective of the species of microsomes used. Samples were analyzed by LC/MS-MS to determine the percent loss in the NAPDH incubations relative to the NADPH free incubations.

[2] = tested on: Sprague Dawley male rats; test: Mechanical hyperalgesia (von Frey) in CFA-induced inflammatory pain rat model; assay type: in vivo; settings: for mechanical hyperalgesia in CFA-induced inflammatory pain: cumulative i.p. dosing, 3 days after CFA; for selectivity of antihyperalgesic effect in three-assay comparison: versus rate-suppressing and muscle-relaxant activity
Description: Raw data (paw withdrawal threshold, expressed in g of von Frey filament) was converted to a maximal possible effect value according the following equation: % MPE=[(test threshold(g)−control threshold(g)/(pre-CFA threshold−control threshold)]×100.
Complete Freund's adjuvant (CFA) contains Mycobacterium butyricum, inducing inflammation and an increase in paw thickness. 0.1 mL of CFA was injected in the right hind paw of Sprague Dawley male rats under isoflurane anaesthesia.
Mechanical hyperalgesia. Mechanical hyperalgesia was measured 3 days after CFA treatment. Rats (n=6) were placed in elevated boxes with a mesh floor. Von Frey filaments (expressed in g) were applied perpendicularly to the hindpaws, starting with the lowest filament (1.4 g) then increased until hindpaw withdrawal was observed. After each measurement, rats received the next dose of drug (every 20 min) until the maximum threshold (26 g) was observed. For the antagonist study, rats were pretreated with the benzodiazepine site antagonist flumazenil (10 min) and then received the next dose of drug (every 20 min) until the pre-CFA threshold was observed.
Drugs. The following drugs were used: HZ166, KRM-II-18B, and KRM-II-81, and were dissolved in a mixture containing 20% Dimethyl sulfoxide (DMSO), 10% Emulphor-620 (Rhodia Inc.), and 70% of 0.9% saline. Flumazenil (purchased from Cayman Chemical Company, MI) was dissolved in a mixture containing 10% ethanol, 40% propylene glycol, and 50% sterile water. Midazolam (Akorn, Inc.) was dissolved in 0.9% saline. Doses were expressed as the weight of the drug in milligrams per kilogram of body weight and drugs were administered intraperitoneally.

[3] = target: T1, α3, β3, γ2 GABA A receptor (Homo sapiens, UniProt P18507+P34903); test: FLIPR functional assay, α3 GABAA receptor subtype in HEK-293 cells; assay type: cell-based; settings: α3 Binding EC50, FLIPR membrane potential, potentiation of GABA EC20
T1 construct: host or cells: HEK-293, stably transfected
T1 sequence (P34903 29-492): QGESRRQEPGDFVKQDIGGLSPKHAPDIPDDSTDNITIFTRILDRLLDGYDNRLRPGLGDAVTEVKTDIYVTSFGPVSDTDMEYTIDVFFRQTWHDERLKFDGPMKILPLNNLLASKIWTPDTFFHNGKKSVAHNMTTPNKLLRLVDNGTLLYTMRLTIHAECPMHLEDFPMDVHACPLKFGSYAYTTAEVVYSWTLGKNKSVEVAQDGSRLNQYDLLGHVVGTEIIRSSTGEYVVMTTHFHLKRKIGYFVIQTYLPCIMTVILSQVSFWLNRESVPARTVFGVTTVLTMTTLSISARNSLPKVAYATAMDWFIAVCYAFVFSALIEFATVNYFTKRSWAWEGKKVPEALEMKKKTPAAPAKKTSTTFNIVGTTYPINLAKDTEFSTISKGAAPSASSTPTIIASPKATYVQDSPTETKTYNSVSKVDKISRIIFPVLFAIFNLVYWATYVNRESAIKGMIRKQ
T1 sequence (P28472 26-473 partner): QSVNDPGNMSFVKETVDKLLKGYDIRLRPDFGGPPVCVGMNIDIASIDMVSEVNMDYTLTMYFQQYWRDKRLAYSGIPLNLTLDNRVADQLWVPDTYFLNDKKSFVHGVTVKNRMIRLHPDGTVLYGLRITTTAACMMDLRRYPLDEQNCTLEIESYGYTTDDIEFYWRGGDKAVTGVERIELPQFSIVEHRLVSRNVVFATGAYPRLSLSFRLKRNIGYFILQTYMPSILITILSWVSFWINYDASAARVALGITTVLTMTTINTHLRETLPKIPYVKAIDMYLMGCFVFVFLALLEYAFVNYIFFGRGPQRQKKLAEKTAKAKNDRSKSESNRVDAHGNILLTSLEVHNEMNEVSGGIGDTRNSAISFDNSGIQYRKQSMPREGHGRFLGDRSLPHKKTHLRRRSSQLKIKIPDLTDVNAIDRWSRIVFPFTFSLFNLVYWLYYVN
T1 sequence (P18507 40-475): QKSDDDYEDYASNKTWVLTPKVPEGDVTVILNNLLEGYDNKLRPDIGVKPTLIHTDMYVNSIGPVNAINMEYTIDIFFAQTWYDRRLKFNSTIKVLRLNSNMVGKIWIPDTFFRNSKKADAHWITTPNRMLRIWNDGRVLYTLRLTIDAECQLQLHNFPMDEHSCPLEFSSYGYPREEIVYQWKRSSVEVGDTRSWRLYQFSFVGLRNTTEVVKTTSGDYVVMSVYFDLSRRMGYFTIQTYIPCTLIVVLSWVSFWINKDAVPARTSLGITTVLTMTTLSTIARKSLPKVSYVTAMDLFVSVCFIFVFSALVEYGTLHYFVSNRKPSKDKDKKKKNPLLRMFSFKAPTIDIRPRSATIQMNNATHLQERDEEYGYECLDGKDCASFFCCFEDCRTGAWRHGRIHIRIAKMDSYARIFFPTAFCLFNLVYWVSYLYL
Description: The FLIPR functional assay is used to determine the EC50 at the α1 and α3 GABAA receptor subtypes. A high EC50 for the α1 subtype would indicate a low chance of adverse effects, including sedation, ataxia, and muscle relaxation. A low α3 EC50 would indicate potential effectiveness as an anxiolytic, antihyperalgesic, and likely an anticonvulsant. See, for example, Liu et al. (Assay. Drug. Dev. Technol. 2008, 6, 781-6) and Joesch et al. (J. Biomol. Screen. 2008, 13, 218-28).
Compounds tested were synthesized internally and solubilized in DMSO at a 10 mM concentration. GABA was purchase from Sigma (#A2129) and prepared at 100 mM in water.
HEK-293 cells were stably transfected with the α1, β3, γ2 GABA A receptor subunits (GenBank accession numbers NM_000806.3, NM_000814.5, and NM_198904.1, respectively) or α3, β3, γ2 (NM_000808 for α3) where obtained from ChanTest Co. (Catalog # CT6216 and CT6218, respectively).
Cells were cultivated in Dulbeco's Modified Eagle's Medium (DMEM, Sigma D5796) supplemented with 10% Fetal Bovine Serum (FBS, Gibco 16000), 0.5 mg/mL Geneticin (Gibco), 0.04 mg/mL Hygromycin B (Gibco), 0.1 mg/mL Zeocin (Gibco) and 20 mM HEPES (Sigma). Cells were grown at 37° C. in a humidified atmosphere of 5% CO2. In the experiments described here frozen cells were used. For this purpose, cells were gown and maintained under confluency during 2-3 weeks and then frozen down at different cell densities using Recovery™ Cell Culture Freezing Medium (Gibco).
18 hours prior to the experiment, cells were quickly thawed at 37° C. and seeded on Poly-D-Lys 384 plates (Corning 356663) at a density of 25,000 cells/well and in 25 μL of complete cell medium as described above.
Membrane potential changes induced by the flux of ions through the receptor were measured as relative fluorescence units (RFU) using the Fluorometric Imaging Plate Reader (FLIPR Tetra®, Molecular Devices) and the FLIPR Membrane Potential Blue Assay kit (Molecular Devices). Prior to the addition of the compounds the medium was removed and cells were loaded with 20 μL of dye prepared in assay buffer composed of Hank's Balanced Salt Solution (HBSS with Ca^+2 and Mg^+2; Gibco 14025) with 20 mM Hepes. After 1 hour of incubation at room temperature (RT), the plate was placed into the FLIPR instrument and experiments were run adding first 10 μL from the 1st addition plate (compound plate) and after a 3 minutes incubation adding 20 μL of the 2nd addition or agonist plate. The response to this last GABA addition was monitored for another 3 minutes. […]
Data Analysis. The difference between the maximum and the minimum (Max-Min) fluorescence reached during the first addition or read interval and the second read interval were used for data analysis (agonist and potentiation, respectively). […]

Row | Structure (SMILES) | Rat Liver microsome stability (reported in % remaining) [1] [% remaining] | mechanical hyperalgesia in CFA-induced inflammatory pain [2] | selectivity of antihyperalgesic effect in three-assay comparison [2] | pEC50 [3] | Rat % Metabolized ([1]; in vitro metabolism, rat) [%]
1 | C#Cc1ccc2c(c1)C(c1ccccc1F)=NCc1c(-c3cnco3)ncn1-2 [KRM-II-18B, 5-(8-Ethynyl-6-(2-fluorophenyl)-4H-benzo[f]imidazo[1,5-a][1,4]diazepin-3-yl)oxazole] | 68 | much more active against hyperalgesia; also recorded: dose-dependently attenuated mechanical hyperalgesia | selectively produce antihyperalgesic effect | 7.95 | –
2 | C#Cc1ccc2c(c1)C(c1ccccn1)=NCc1c(-c3cnco3)ncn1-2 [KRM-II-81, 5-(8-Ethynyl-6-(pyridin-2-yl)-4H-benzo[f]imidazo[1,5-a][1,4]diazepin-3-yl)oxazole] | 90 | much more active against hyperalgesia; also recorded: dose-dependently attenuated mechanical hyperalgesia | selectively produce antihyperalgesic effect | 6.01 and 6.03 | 9.6
